Data published in US12435060B2, “Acylamino bridged heterocyclic compound, and composition and application thereof” (BEIJING SCITECH-MQ PHARMACEUTICALS LIMITED, priority 2019, dated 2025).

These compounds were tested on HT29 cells (assay: Inhibition of cell necrosis (CCK8 method), induced programmed necrosis of HT29 cells). Details: Homo sapiens, HT-29; rescue from necrosis induced by TNF-α 20 ng/mL, AT-406 1 μM, Z-VAD-FMK 20 μM; 16-20 hours; CCK-8, OD 450 nm.
Type: cell-based
In short: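 HT29 cells in McCOY's 5A with 10% FBS were pre-treated for 30 min with compound (9 fourfold steps, 25000 to 0.38 nM final, 0.25% DMSO). Necrosis was then induced with TNF-α 20 ng/mL, AT-406 1 μM and Z-VAD-FMK 20 μM for 16-20 h. Viability was read by CCK-8 OD450, normalized between uninduced and induced wells, and IC50 was curve-fitted.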
With Cc1ccc(OCCCC(C)(C)O)cc1-c1ccnc(NC(=O)c2nnc(Cc3cccnc3)[nH]2)c1 [Example 220, N-(4-(5-((4-hydroxy-4-methylpentyl)oxy)-2-methylphenyl)pyridin-2-yl)-5-(pyridin-3-ylmethyl)-4H-1,2,4-triazole-3-carboxamide] the IC50 was at most 100 nM.
O=C(Nc1cc(-c2ccccc2Cl)ccn1)c1nnc(Cc2ccccc2)[nH]1 [Example 7, 5-benzyl-N-(4-(2-chlorophenyl)pyridin-2-yl)-4H-1,2,4-triazole-3-carboxamide] gave an IC50 of 100 to 1000 nM.
Cc1ccc(OCCCC(C)(C)O)cc1-c1ccnc(NC(=O)c2nnc(Cc3cc(F)cc(Cl)c3)[nH]2)c1 [Example 205, 5-(5-chloro-3-fluorobenzyl)-N-(4-(5-((4-hydroxy-4-methylpentyl)oxy)-2-methylphenyl)pyridin-2-yl)-4H-1,2,4-triazole-3-carboxamide] was tested, and the IC50 was 100 to 1000 nM.
Compound O=C(Nc1cc(-c2cc(OCCC3CCOCC3)ccc2C(F)(F)F)ncn1)c1nnc(Cc2ccccc2)[nH]1 [Example 458, 5-benzyl-N-(6-(5-(2-(tetrahydro-2H-pyran-4-yl)ethoxy)-2-(trifluoromethyl)phenyl)pyrimidin-4-yl)-4H-1,2,4-triazole-3-carboxamide] has an IC50 of at most 100 nM.
CC(C)(O)CCCCOc1ccc(Cl)c(-c2ccnc(NC(=O)c3nnc(Cc4ccccc4F)[nH]3)c2)c1 [Example 368, 5-(2-fluorobenzyl)-N-(4-(2-chloro-5-((5-hydroxyl-5-methylhexyl)oxy)phenyl)pyridin-2-yl)-4H-1,2,4-triazole-3-carboxamide] was tested, and the IC50 was at most 100 nM.
For Cc1ccc(OCC(C)(C)O)cc1-c1ccnc(NC(=O)c2nnc(CC3CCCCC3)[nH]2)c1 [Example 119, 5-(cyclohexylmethyl)-N-(4-(5-(2-hydroxyl-2-methylpropoxy)-2-methylphenyl)pyridin-2-yl)-4H-1,2,4-triazole-3-carboxamide], the IC50 was at most 100 nM.
Work on Cc1ccc(OCCCC(C)(C)O)cc1-c1ccnc(NC(=O)c2nnc(Cc3cc(F)c(F)c(F)c3)[nH]2)c1 [Example 217, 5-(3,4,5-trifluorobenzyl)-N-(4-(5-((4-hydroxy-4-methylpentyl)oxy)-2-methylphenyl)pyridin-2-yl)-4H-1,2,4-triazole-3-carboxamide] yielded an IC50 of 100 to 1000 nM.
With Cc1ccc(OCCCC(C)(C)O)cc1-c1ccnc(NC(=O)c2nnc(CC34CC5CC(CC(C5)C3)C4)[nH]2)c1 [Example 180, 5-(adamantan-1-ylmethyl)-N-(4-(5-((4-hydroxy-4-methylpentyl)oxy)-2-methylphenyl)pyridin-2-yl)-4H-1,2,4-triazole-3-carboxamide] the IC50 was at most 100 nM.
With COCCOc1nc(-c2ccnc(NC(=O)c3nnc(Cc4ccccc4)[nH]3)c2)ccc1C [Example 54, 5-benzyl-N-(6-(2-methoxyethoxy)-5-methyl-[2,4′-bipyridin]-2′-yl)-4H-1,2,4-triazole-3-carboxamide] the IC50 was over 10000 nM.
For Cc1ccc(OCCCC(C)(C)O)cc1-c1ccnc(NC(=O)c2nnc(Cc3ccccc3)[nH]2)c1 [Example 160, 5-benzyl-N-(4-(5-((4-hydroxy-4-methylpentyl)oxy)-2-methylphenyl)pyridin-2-yl)-4H-1,2,4-triazole-3-carboxamide], the IC50 was at most 100 nM.
In the case of CCOc1ccc(C)c(-c2ccnc(NC(=O)c3nnc(Cc4ccccc4)[nH]3)c2)c1 [Example 108, 5-benzyl-N-(4-(5-ethoxy-2-methylphenyl)pyridin-2-yl)-4H-1,2,4-triazole-3-carboxamide], the IC50 is reported as 1000 to 10000 nM.
For Cc1ccc(OC2CCOCC2)cc1-c1ccnc(NC(=O)c2nnc(Cc3ccccc3)[nH]2)c1 [Example 65, 5-benzyl-N-(4-(2-methyl-5-((tetrahydro-2H-pyran-4-yl)oxy)phenyl)pyridin-2-yl)-4H-1,2,4-triazole-3-carboxamide], the IC50 was at most 100 nM.
O=C(Nc1cc(-c2cc(OCC3CCOCC3)ccc2C(F)(F)F)ncn1)c1nnc(Cc2ccccc2)[nH]1 [Example 454, 5-benzyl-N-(6-(5-((tetrahydro-2H-pyran-4-yl)methoxy)-2-(trifluoromethyl)phenyl)pyrimidin-4-yl)-4H-1,2,4-triazole-3-carboxamide] showed an IC50 of at most 100 nM.
Work on Cc1ccc(OCC2(O)CC2)cc1-c1ccnc(NC(=O)c2nnc(Cc3ccccc3)[nH]2)c1 [Example 159, 5-benzyl-N-(4-(5-((1-hydroxycyclopropyl)methoxy)-2-methylphenyl)pyridin-2-yl)-4H-1,2,4-triazole-3-carboxamide] yielded an IC50 of at most 100 nM.
With Cc1ccccc1-c1cncc(NC(=O)c2nnc(Cc3ccccc3)[nH]2)c1 [Example 29, 5-benzyl-N-(5-(o-methylphenyl)pyridin-3-yl)-4H-1,2,4-triazole-3-carboxamide] the IC50 was over 10000 nM.
Compound O=C(Nc1cc(-c2cc(OCC3CCOCC3)ccc2Cl)ncn1)c1nnc(CC2CCCCC2)[nH]1 [Example 469, 5-(cyclohexylmethyl)-N-(6-(2-chloro-5-((tetrahydro-2H-pyran-4-yl)methoxy)phenyl)pyrimidin-4-yl)-4H-1,2,4-triazole-3-carboxamide] has an IC50 of at most 100 nM.
CC(C)OCCOc1ccc(C(F)(F)F)c(-c2ccnc(NC(=O)c3nnc(Cc4ccccc4F)[nH]3)c2)c1 [Example 288, 5-(2-fluorobenzyl)-N-(4-(5-(2-isopropoxyethoxy)-2-(trifluoromethyl)phenyl)pyridin-2-yl)-4H-1,2,4-triazole-3-carboxamide] showed an IC50 of at most 100 nM.
Compound O=C(Nc1cc(-c2cccc3c2CCCO3)ccn1)c1nnc(Cc2ccccc2)[nH]1 [Example 40, 5-benzyl-N-(4-(chroman-5-yl)pyridin-2-yl)-4H-1,2,4-triazole-3-carboxamide] has an IC50 of 1000 to 10000 nM.
Cc1ccc(C(=O)NCCC(C)(C)O)cc1-c1ccnc(NC(=O)c2nnc(Cc3ccccc3)[nH]2)c1 [Example 487, 5-benzyl-N-(4-(5-((3-hydroxyl-3-methylbutyl)carbamoyl)-2-methylphenyl)pyridin-2-yl)-4H-1,2,4-triazole-3-carboxamide] was tested, and the IC50 was 100 to 1000 nM.
Compound Cc1ccc(OCCCC(C)(C)O)cc1-c1ccnc(NC(=O)c2nnc(CCC3CCCC3)[nH]2)c1 [Example 176, 5-(2-cyclopentylethyl)-N-(4-(5-((4-hydroxy-4-methylpentyl)oxy)-2-methylphenyl)pyridin-2-yl)-4H-1,2,4-triazole-3-carboxamide] has an IC50 of at most 100 nM.
In the case of C=CCCCOc1ccc(C)c(-c2ccnc(NC(=O)c3nnc(Cc4ccccc4)[nH]3)c2)c1 [Example 149, 5-benzyl-N-(4-(2-methyl-5-(pent-4-en-1-yloxy)phenyl)pyridin-2-yl)-4H-1,2,4-triazole-3-carboxamide], the IC50 is reported as at most 100 nM.
For CCOCCOc1ccc(Cl)c(-c2ccnc(NC(=O)c3nnc(CC4CCCCC4)[nH]3)c2)c1 [Example 386, N-(4-(2-chloro-5-(2-ethoxyethoxy)phenyl)pyridin-2-yl)-5-(cyclohexylmethyl)-4H-1,2,4-triazole-3-carboxamide], the IC50 was at most 100 nM.
Compound Cc1ccc(OCCCC(C)(C)O)cc1-c1cc(NC(=O)c2nnc(Cc3ccccc3F)[nH]2)ncc1F [Example 492, N-(5-fluoro-4-(5-((4-hydroxy-4-methylpentyl)oxy)-2-methylphenyl)pyridin-2-yl)-5-(2-fluorobenzyl)-4H-1,2,4-triazole-3-carboxamide] has an IC50 of at most 100 nM.
Work on Cc1cnc(OC(C)C)c(-c2ccnc(NC(=O)c3nnc(Cc4ccccc4)[nH]3)c2)c1 [Example 52, 5-benzyl-N-(2-isopropoxy-5-methyl-[3,4′-bipyridin]-2′-yl)-4H-1,2,4-triazole-3-carboxamide] yielded an IC50 of over 10000 nM.
With CSCCCOc1ccc(C)c(-c2ccnc(NC(=O)c3nnc(Cc4ccccc4)[nH]3)c2)c1 [Example 72, 5-benzyl-N-(4-(2-methyl-5-(3-(methylthio)propoxy)phenyl)pyridin-2-yl)-4H-1,2,4-triazole-3-carboxamide] the IC50 was at most 100 nM.
Work on CC(C)Oc1ccc(Cl)c(-c2cncc(NC(=O)c3nnc(Cc4ccccc4)[nH]3)c2)c1 [Example 110, 5-benzyl-N-(5-(2-chloro-5-isopropoxyphenyl)pyridin-3-yl)-4H-1,2,4-triazole-3-carboxamide] yielded an IC50 of over 10000 nM.
O=C(Nc1cc(-c2cc(OCC3CCOCC3)ccc2C(F)(F)F)ccn1)c1nnc(CC2CCCC2)[nH]1 [Example 303, 5-(cyclopentylmethyl)-N-(4-(5-((tetrahydro-2H-pyran-4-yl)methoxy)-2-(trifluoromethyl)phenyl)pyridin-2-yl)-4H-1,2,4-triazole-3-carboxamide] showed an IC50 of at most 100 nM.
With CCOc1ccc(Cl)c(-c2ccnc(NC(=O)c3nnc(Cc4ccccc4)[nH]3)c2)c1 [Example 106, 5-benzyl-N-(4-(2-chloro-5-ethoxyphenyl)pyridin-2-yl)-4H-1,2,4-triazole-3-carboxamide] the IC50 was 1000 to 10000 nM.
Cc1ccc(OCCCOC2CCC2)cc1-c1ccnc(NC(=O)c2nnc(Cc3ccccc3)[nH]2)c1 [Example 81, 5-benzyl-N-(4-(5-(3-cyclobutoxypropoxy)-2-methylphenyl)pyridin-2-yl)-4H-1,2,4-triazole-3-carboxamide] showed an IC50 of at most 100 nM.
Work on Cc1ccc(OCCOC(C)(C)C)cc1-c1ccnc(NC(=O)c2nnc(CC3CCCC3)o2)c1 [Example 76] yielded an IC50 of over 10000 nM.
Cc1cnc(NC(=O)c2nnc(CC3CCCCC3)[nH]2)cc1-c1cc(OCC2CCOCC2)ccc1F [Example 332, 5-(cyclohexylmethyl)-N-(4-(2-fluoro-5-((tetrahydro-2H-pyran-4-yl)methoxy)phenyl)-5-methylpyridin-2-yl)-4H-1,2,4-triazole-3-carboxamide] showed an IC50 of 1000 to 10000 nM.
Work on O=C(Nc1cc(-c2cc(OCCCCO)ccc2C(F)(F)F)ccn1)c1nnc(Cc2ccccc2F)[nH]1 [Example 273, 5-(2-fluorobenzyl)-N-(4-(5-(4-hydroxybutoxy)-2-(trifluoromethyl)phenyl)pyridin-2-yl)-4H-1,2,4-triazole-3-carboxamide] yielded an IC50 of at most 100 nM.
Work on CCOc1ccc(OC)c(-c2ccnc(NC(=O)c3nnc(Cc4ccccc4)[nH]3)c2)c1 [Example 107, 5-benzyl-N-(4-(5-ethoxy-2-methoxyphenyl)pyridin-2-yl)-4H-1,2,4-triazole-3-carboxamide] yielded an IC50 of 1000 to 10000 nM.
